Data published in US7244734B2, “Hexa- and octahydro-pyrido[1,2-a]pyrazine derivatives with NK1 antagonistic activity” (Solvay Pharmaceuticals B.V., priority 2003, dated 2007).

Legend:
human NK1 receptor = target: T1, human NK1 receptor (Homo sapiens, UniProt P25103); assay: Receptor binding for human NK1 receptors ([3H]-substance P displacement, CHO cell membranes); details: human NK1 receptor in CHO membranes, read-out: affinity NK-1 binding pKi (converted)
T1 construct: expressed in transfected cells; membranes
Experimental: Receptor Binding for Human NK1 Receptors
Affinity of the compounds for human NK1 receptors was assessed using radio-receptor binding assays. Membrane preparations were prepared from Chinese Hamster Ovarium fibroblast (CHO) cells in which the human NK1 receptor was stably expressed. Membranes were incubated with [^3H]-substance P in the absence or the presence of specified concentrations of the compounds, diluted in a suitable buffer in presence of peptidase inhibitor for 10 min at 25° C. Separation of bound radioactivity from free was done by filtration over Whatman GF/B glass fiber filters with two 5 sec washings. Bound radioactivity was counted by liquid scintillation counting using a Betaplate counter. Measured radioactivity was plotted against the concentration of the displacing test compound and displacement curves were calculated by four-parameter logistic regression, resulting in IC50 values, i.e. that concentration of displacing compound by which 50% of the radioligand is displaced. Affinity pKI values were calculated by correcting the IC50 values for radioligand concentration and its affinity for the human NK1 receptor according to the Cheng-Prusoff equation: pKi=−log [IC50/(1+S/Kd)] in which the IC50 is as described above, S is the concentration [^3H]-substance P used in the assay expressed in mol/l, and Kd is the equilibrium dissociation constant of [^3H]-substance P for human NK1 receptors (in mol/l). cAMP Measurements

[1] = tested on: NK1 agonist-induced gerbil foot-tapping; assay: NK1 agonist (GR 73632)-induced gerbil foot-tapping; details: Meriones unguiculatus, po, 60 min before anaesthesia; GR 73632 i.c.v.; male gerbils; read-out: In vivo antagonism Gerbil foot tapping p.o. ED50
Experimental: Concentration-response relationships were constructed by plotting cAMP conversion against compound concentration and IC50 values were calculated by four-parameter logistic regression. Antagonist potencies (pA2) values were calculated using: […] in which the IC50 of the test compound was obtained from concentration-effect relationships, [SP] is the concentration of substance P (in mol/l; typically 10 nM), and the EC50 is the potency of substance P at human cloned NK1 receptors. NK1 Agonist—Induced Gerbil Foot-Tapping
Therefore, we have used this model to assess the in vivo activity of the compounds of the invention.
60 min prior to anaesthesia with N2O (0.8 L/min), halothane (3%) and O2 (0.8 L/min) male gerbils (40-60 g; Charles River) received an injection of vehicle or test compound (p.o.). Upon successful narcosis the anaesthetic was adjusted to N2O (0.6 L/min), halothane (1.5%) and O2 (0.6 L/min) and a midline scalp incision made. GR 73632 was infused into the cerebroventricular space (AP−0.5 mm, L−1.2 mm, and vertical−4.5 mm from bregma). Following recovery from anaesthesia (about 3-4 min) the foot tapping response was recorded for 5 minutes. The predefined criterion for antagonism of this response was defined as inhibition of foot tapping for ≧5 min.

T1 sequence (P25103 whole entry): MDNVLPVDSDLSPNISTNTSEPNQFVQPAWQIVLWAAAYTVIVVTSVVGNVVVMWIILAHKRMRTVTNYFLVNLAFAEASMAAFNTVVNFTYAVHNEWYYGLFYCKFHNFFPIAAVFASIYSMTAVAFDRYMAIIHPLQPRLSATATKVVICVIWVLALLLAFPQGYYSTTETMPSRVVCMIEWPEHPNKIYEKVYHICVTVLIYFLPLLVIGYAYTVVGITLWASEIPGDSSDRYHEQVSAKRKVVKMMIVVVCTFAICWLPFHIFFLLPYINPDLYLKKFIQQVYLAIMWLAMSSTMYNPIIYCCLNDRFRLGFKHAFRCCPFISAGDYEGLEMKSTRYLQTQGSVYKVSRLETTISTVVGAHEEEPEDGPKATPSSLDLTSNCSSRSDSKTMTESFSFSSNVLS

Structure (SMILES)	Ki (human NK1 receptor) [nM]	ED50 [1] [mg/kg]
O=C(c1cc(C(F)(F)F)cc(C(F)(F)F)c1)N1C[C@H]2CCC(c3ccncc3)=CN2C[C@H]1Cc1c[nH]c2ccccc12 [Compound 1, (3R,9aR)-(3,5-bis(trifluoromethyl)phenyl)-[3-(1H-indol-3-ylmethyl)-7-pyridin-4-yl-1,3,4,8,9,9a-hexahydro-pyrido[1,2-a]pyrazin-2-yl]-methanone]	15.8	1.7
O=C(c1cc(C(F)(F)F)cc(C(F)(F)F)c1)N1C[C@H]2CCC(c3cccnc3)=CN2C[C@H]1Cc1c[nH]c2ccccc12 [Compound 2, (3R,9aR)-(3,5-bis(trifluoromethyl)phenyl)-[3-(1H-indol-3-ylmethyl)-7-pyridin-3-yl-1,3,4,8,9,9a-hexahydro-pyrido[1,2-a]pyrazin-2-yl]-methanone]	20	–
O=C(c1cc(C(F)(F)F)cc(C(F)(F)F)c1)N1C[C@H]2CCC(c3ccccn3)=CN2C[C@H]1Cc1c[nH]c2ccccc12 [Compound 3, (3R,9aR)-(3,5-bis(trifluoromethyl)phenyl)-[3-(1H-indol-3-ylmethyl)-7-pyridin-2-yl-1,3,4,8,9,9a-hexahydro-pyrido[1,2-a]pyrazin-2-yl]-methanone]	3.16	2.2
O=C(c1cc(C(F)(F)F)cc(C(F)(F)F)c1)N1C[C@H]2CCC(c3cncnc3)=CN2C[C@H]1Cc1c[nH]c2ccccc12 [Compound 4, (3R,9aR)-(3,5-bis(trifluoromethyl)phenyl)-[3-(1H-indol-3-ylmethyl)-7-pyrimidin-5-yl-1,3,4,8,9,9a-hexahydro-pyrido[1,2-a]pyrazin-2-yl]-methanone]	7.94	–
O=C(c1cc(C(F)(F)F)cc(C(F)(F)F)c1)N1C[C@H]2CCC(c3cnccn3)=CN2C[C@H]1Cc1c[nH]c2ccccc12 [Compound 5, (3R,9aR)-(3,5-bis(trifluoromethyl)phenyl)-[3-(1H-indol-3-ylmethyl)-7-pyrazin-2-yl-1,3,4,8,9,9a-hexahydro-pyrido[1,2-a]pyrazin-2-yl]-methanone]	2.51	–

Second part, led by results:

Ki (human NK1 receptor) [nM]	Structure (SMILES)	ED50 [1] [mg/kg]
1.58	O=C(c1cc(C(F)(F)F)cc(C(F)(F)F)c1)N1C[C@H]2CCC(c3ncccn3)=CN2C[C@H]1Cc1c[nH]c2ccccc12 [Compound 6, (3R,9aR)-(3,5-bis(trifluoromethyl)phenyl)-[3-(1H-indol-3-ylmethyl)-7-pyrimidin-2-yl-1,3,4,8,9,9a-hexahydro-pyrido[1,2-a]pyrazin-2-yl]-methanone]	–
0.631	O=C(c1cc(C(F)(F)F)cc(C(F)(F)F)c1)N1C[C@H]2CCC(c3nccs3)=CN2C[C@H]1Cc1c[nH]c2ccccc12 [Compound 7, (3R,9aR)-(3,5-bis(trifluoromethyl)phenyl)-[3-(1H-indol-3-ylmethyl)-7-thiazol-2-yl-1,3,4,8,9,9a-hexahydro-pyrido[1,2-a]pyrazin-2-yl]-methanone]	3.4
